Consider 21 compounds from patent US4411925A, “Branched amides of L-aspartyl-d-amino acid dipeptides” (Pfizer Inc., priority 1980, dated 1983).

Square brackets hold non-standard residues; d marks the D form. Peptide text beside a SMILES is read from it. * marks the point of attachment. NHiPr = CC(C)N*; OiPr = CC(C)O*

Assay [1] is described as follows: Sweetness potency: gustatory sweetness compared with sucrose standard by expert taste panel. As to conditions: aqueous solutions compared with 7-9% sucrose. The class given is in vivo. The method, then:
The sweetness potency of the instant compounds was determined by comparison of their gustatory sweetnesses with sucrose. Aqueous solutions of the compound of formula (I) diluted to a suitable range of concentrations were compared with a sucrose standard by an expert taste panel. Comparisons were generally made with aqueous sucrose solutions of 7-9%, i.e., 7-9 g. per 100 ml. Higher sucrose concentrations have a distinctive mouthfeel which may influence results and lower sucrose concentration are not indicative of normal use situations. […] All of the sweetness potency values stated herein for the compounds of the invention were determined by this method.

The conditions of assay [2]: factor used to calculate the theoretical sweetness of the blends; cited from earlier work.
The conditions of assay [3]: prior art values (U.S. 3,492,131; Mazur et al.; Sukehiro et al.); cited from earlier work.

As to `C[C@@H](NC(=O)[C@@H](N)CC(=O)O)C(=O)NC1C(C)(C)CSC1(C)C` (mixture of isomers) [L-Aspartyl-D-alanine N-(2,2,4,4-tetramethyltetrahydrothiophene-3-yl)amide], the Sweetness potency in assay [1] came out at 800 x sucrose.
The same measure, in the same setting: the value for `CC(C)[C@@H](NC(=O)[C@@H](N)CC(=O)O)C(=O)NC(C1CC1)C1CC1` [Example 23, L-Aspartyl-D-valine N-(dicyclopropylcarbinyl)amide] was 110 x sucrose; that for “L-Aspartyl-D-alanine N-(2,2,4,4-tetramethyltetrahydrothiophene-3-yl)amide [Example 14]” was 500 x sucrose.
Still for that read-out and setting: the value for `CC1CCCCC1NC(=O)[C@@H](C)NC(=O)[C@@H](N)CC(=O)O` (stereo partly drawn) [Example 4, L-Aspartyl-D-alanine N-(2-methycyclohexyl)amide] was 250 x sucrose; that for `CC1CSCC(C)C1NC(=O)[C@@H](C)NC(=O)[C@@H](N)CC(=O)O` (stereo partly drawn) [Example 12, L-Aspartyl-D-alanine-N-(3,5-dimethyltetrahydrothiopyran-4-yl)amide] was 200 x sucrose.
On the same count and under the same terms, the figure for `C[C@@H](NC(=O)[C@@H](N)CC(=O)O)C(=O)NC(C1CC1)C(C)(C)C` (mixture of isomers) [Example 6, L-Aspartyl-D-alanine N-(dl-t-butylcyclopropylcarbinyl)amide] is 1200 x sucrose; for `CC[C@@H](NC(=O)[C@@H](N)CC(=O)O)C(=O)NC(C1CC1)C1CC1` [Example 20, L-Aspartyl-D-2-aminobutyric acid N-(dicyclopropylcarbinyl)amide] it is 500 x sucrose; for `C[C@@H](NC(=O)[C@@H](N)CC(=O)O)C(=O)NC1C(=O)OCC1(C)C` (mixture of isomers) [Example 27, L-Aspartyl-D-alanine N-(DL-2-amino-3,3-dimethyl-4-hydroxybutanoic acid lactone)amide] it is 100 x sucrose.
`C[C@@H](NC(=O)[C@@H](N)CC(=O)O)C(=O)NC1C(C)(C)CCC1(C)C` [Example 7, L-Aspartyl-D-alanine N-(2,2,5,5-tetramethylcyclopent-l-yl)amide] gave a Sweetness potency in assay [1] of 800 x sucrose.
Take `O=C1NS(=O)(=O)c2ccccc21.[Na]` [sodium saccharin]: the Sweetness potency factor in assay [2] is 300 x sucrose.
As for `C[C@@H](NC(=O)[C@@H](N)CC(=O)O)C(=O)NC(C(C)(C)C)C(C)(C)C` [Example 25, L-Aspartyl-D-alanine N-(2,2,4,4-tetramethyl-3-pentyl)amide], the Sweetness potency in assay [1] was found to be 450 x sucrose.
Still for that read-out and setting: the value for `CC[C@@H](NC(=O)[C@@H](N)CC(=O)O)C(=O)NC(C(C)C)C(C)C` [Example 22, L-Aspartyl-D-2-aminobutyric acid N-(2,4-dimethyl-3-pentyl)amide] was 100 x sucrose; that for `CSC(C)(C)C(NC(=O)[C@@H](C)NC(=O)[C@@H](N)CC(=O)O)C(C)C` (stereo partly drawn) [Example 18, L-Aspartyl-D-alanine N-(2-methylthio-2,4-dimethylpentan-3-yl)amide] was 150 x sucrose.
`CC(C)OC(=O)[C@@H](C)NC(=O)[C@@H](N)CC(=O)O` [L-aspartyl-D-alanine isopropyl ester] (H-Asp-[dA]-OiPr): in assay [3], the “sweetness relative to sucrose” value is recorded as “up to 125 times sucrose”.
`CC1CCCC(C)C1NC(=O)[C@@H](C)NC(=O)[C@@H](N)CC(=O)O` (relative stereo) [Example 3] had a Sweetness potency in assay [1] of 600 x sucrose.
Still for that read-out and setting: the figure for `CC(C)C(NC(=O)[C@@H](C)NC(=O)[C@@H](N)CC(=O)O)C(C)(C)O` (stereo partly drawn) [Example 26, L-Aspartyl-D-alanine N-(2-hydroxy-2,4-dimethyl-3-pentyl)amide] is 125 x sucrose; for `C[C@@H](NC(=O)[C@@H](N)CC(=O)O)C(=O)NC1C(C)(C)SC1(C)C` [Example 16, L-Aspartyl-D-alanine N-(2,2,4,4-tetramethylthietan-3-yl)amide] it is 2000 x sucrose.
Still for that read-out and setting: the figure for `C[C@@H](NC(=O)[C@@H](N)CC(=O)O)C(=O)NC1C(C)(C)S(=O)(=O)C1(C)C` [Example 17, L-Aspartyl-D-alanine N-(2,2,4,4-tetramethyl-1,1-dioxothietan-3-yl)amide] is 1000 x sucrose; for `CC(C)NC(=O)[C@H](NC(=O)[C@@H](N)CC(=O)O)C(C)C` [Example 24, L-Aspartyl-D-valine N-isopropylamide] (H-Asp-[dV]-NHiPr) it is 1-2 x sucrose.
Still for that read-out and setting: the figure for `CC[C@@H](NC(=O)[C@@H](N)CC(=O)O)C(=O)NC1C(C)(C)S(=O)(=O)C1(C)C` [Example 21, L-Aspartyl-D-2-aminobutyric acid N-(2,2,4,4-tetramethyl-1,1-dioxothietan-3-yl)amide] is 200 x sucrose; for `C[C@@H](NC(=O)[C@@H](N)CC(=O)O)C(=O)NC(C1CC1)C1CC1` [[I, R^a =CH3, R=CH(Δ)2], L-Aspartyl-D-alanine N-(dicyclopropylcarbinyl)amide] it is 1200 x sucrose.
